Source: ChEMBL document CHEMBL1201862, “PubChem BioAssay data set” (2004)
Several values for one entry are separate records, joined by “and”; a condition that tells them apart may be missing. Equal entries are not always repeated.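 Test compounds were applied to cells in 96-well plates for 48 hours at 5 doses. At the GI50, growth is halved.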 Activity calls are given as the source filed them. Rule as the data show it: active = GI50 up to about 1.1 µM and inactive = higher.

Key:
Assay in all cases: inhibition of tumour cell growth, NCI panel, 48 h
[1] = tested on: SK-MEL-28
[2] = tested on: SF-539
[3] = tested on: UACC-257
[4] = tested on: COLO 205
[5] = tested on: A549
[6] = tested on: SK-MEL-2
[7] = tested on: A498
[8] = tested on: HOP-62
[9] = tested on: K562
[10] = tested on: SF-295
[11] = tested on: SK-MEL-5
[12] = tested on: IGROV-1
[13] = tested on: MOLT-4
[14] = tested on: NCI-H226
[15] = tested on: LOX IMVI
[16] = tested on: CAKI-1
[17] = tested on: SF-268
[18] = tested on: SNB-75
[19] = tested on: MDA-N
[20] = tested on: Hs-578T

Measured: GI50

CC1=C(C(=O)NCc2ccccc2)C(c2ccccc2O)C(C(=O)NCc2ccccc2)=C(C)N1
inactive: [1] 18 µM | [2] 18.4 µM | [3] 16.1 µM | [4] 16.9 µM | [5] 20.8 µM | [6] 15.4 µM | [7] 19 µM | [8] 19.9 µM | [9] 36.1 µM | [10] 21.1 µM | [11] 15 µM | [12] 19.5 µM | [13] 31.3 µM | [14] 16.6 µM | [15] 14.5 µM | [16] 18.3 µM | [17] 22.9 µM | [18] 23.6 µM

CC(=O)OCC(OC(C)=O)C(OC(C)=O)C(/C=N\Nc1nc2ccccc2c(=O)[nH]1)OC(C)=O (centres undefined)
inactive: [1] > 100 µM | [2] > 100 µM | [3] > 100 µM | [4] > 100 µM | [5] > 100 µM | [6] > 100 µM | [7] > 100 µM | [8] > 100 µM | [9] > 100 µM | [10] > 100 µM | [11] > 100 µM | [12] 26.1 µM and 43.5 µM | [19] > 100 µM | [13] 86.9 µM | [14] > 100 µM and 89.9 µM | [15] > 100 µM | [16] > 100 µM | [17] > 100 µM | [18] > 100 µM

COC(=O)C(/C(=N\O)C(=O)Nc1ccc(Br)cc1)c1nc2ccccc2nc1O (centres undefined)
inactive: [1] 36.7 µM | [2] 24.4 µM | [3] > 100 µM | [4] 18.5 µM | [5] > 100 µM | [6] 23 µM | [7] 61 µM | [8] 28.4 µM | [9] 26.4 µM | [10] > 100 µM | [11] 28.6 µM | [12] 19 µM | [13] 26.1 µM | [14] 29 µM | [15] 22.7 µM | [16] > 100 µM | [17] 39.2 µM | [18] 23.6 µM

N#Cc1c(C#N)c(-c2ccco2)n(/N=C/c2ccco2)c1N
inactive: [2] 23.9 µM | [3] > 100 µM | [4] > 100 µM | [5] 47.5 µM | [6] > 100 µM | [7] 27.6 µM | [8] 28.1 µM | [9] > 100 µM | [10] 21.9 µM | [11] > 100 µM | [12] 35.6 µM | [13] 94.6 µM | [14] 18.8 µM | [15] 83.4 µM | [16] > 100 µM | [17] 28.2 µM | [20] 17.4 µM | [18] 7.29 µM

COc1ccc(NC(=O)c2cc(OC)c(OC)c(OC)c2)cc1
inactive: [1] 29 µM | [2] 48 µM | [3] 42.8 µM | [4] 26.5 µM | [5] 62.1 µM | [6] 21.8 µM | [7] 43.6 µM | [8] 33 µM | [9] 24.7 µM | [10] 36.1 µM | [11] 28.2 µM | [12] 66.1 µM | [13] 34.3 µM | [14] > 78.3 µM | [15] 60.3 µM | [16] 66.4 µM | [17] > 56.4 µM | [18] 42.2 µM

COc1ccc(/C=C/c2cc(OC)c(OC)c(OC)c2)cc1
inactive: [1] 18.7 µM | [2] 4.29 µM | [3] > 100 µM | [4] 3.14 µM | [5] 7.55 µM | [6] 2.36 µM | [7] 3.4 µM | [8] 3.48 µM | [9] 3.2 µM | [10] 2.73 µM | [11] 3.68 µM | [12] 11 µM | [13] 2.21 µM | [14] 5.61 µM | [15] 5.52 µM | [16] 3.53 µM | [17] 15.1 µM | [18] 3.43 µM
